Where two headings read alike, the source gives them in different places.
Legend:
[1] = tested on: rats; conditions: rat, in vivo, cited from earlier work
[2] = target: T1, rat hippocampal AChE (Rattus norvegicus, UniProt P37136); type: biochemical
T1 sequence (P37136 32-614): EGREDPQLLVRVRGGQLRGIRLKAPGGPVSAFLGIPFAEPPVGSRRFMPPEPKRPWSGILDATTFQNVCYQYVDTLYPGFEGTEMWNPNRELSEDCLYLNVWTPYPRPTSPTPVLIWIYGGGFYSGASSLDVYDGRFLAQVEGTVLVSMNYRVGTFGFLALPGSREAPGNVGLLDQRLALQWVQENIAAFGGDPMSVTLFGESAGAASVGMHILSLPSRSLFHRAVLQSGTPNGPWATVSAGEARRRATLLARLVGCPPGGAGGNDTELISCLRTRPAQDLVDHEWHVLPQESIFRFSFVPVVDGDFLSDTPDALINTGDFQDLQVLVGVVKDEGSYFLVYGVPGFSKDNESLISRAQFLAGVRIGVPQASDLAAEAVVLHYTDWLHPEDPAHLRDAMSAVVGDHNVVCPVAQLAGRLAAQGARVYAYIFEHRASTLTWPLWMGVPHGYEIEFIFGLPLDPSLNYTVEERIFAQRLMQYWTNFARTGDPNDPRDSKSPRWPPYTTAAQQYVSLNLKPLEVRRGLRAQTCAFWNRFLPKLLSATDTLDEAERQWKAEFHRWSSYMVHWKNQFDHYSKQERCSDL

[3] = tested on: Adult male Sprague-Dawley rats; conditions: rat, in vivo
[4] = tested on: Adult male Sprague-Dawley rats; conditions: rat, in vivo; remark: listed apart in the source
[5] = target: T2, hippocampal FAAH (Rattus norvegicus, UniProt P97612); conditions: four hours after dosing, PO 0.3 and 0.6 mg/kg sc, CPO 6 and 12 mg/kg sc
T2 sequence (P97612 1-579): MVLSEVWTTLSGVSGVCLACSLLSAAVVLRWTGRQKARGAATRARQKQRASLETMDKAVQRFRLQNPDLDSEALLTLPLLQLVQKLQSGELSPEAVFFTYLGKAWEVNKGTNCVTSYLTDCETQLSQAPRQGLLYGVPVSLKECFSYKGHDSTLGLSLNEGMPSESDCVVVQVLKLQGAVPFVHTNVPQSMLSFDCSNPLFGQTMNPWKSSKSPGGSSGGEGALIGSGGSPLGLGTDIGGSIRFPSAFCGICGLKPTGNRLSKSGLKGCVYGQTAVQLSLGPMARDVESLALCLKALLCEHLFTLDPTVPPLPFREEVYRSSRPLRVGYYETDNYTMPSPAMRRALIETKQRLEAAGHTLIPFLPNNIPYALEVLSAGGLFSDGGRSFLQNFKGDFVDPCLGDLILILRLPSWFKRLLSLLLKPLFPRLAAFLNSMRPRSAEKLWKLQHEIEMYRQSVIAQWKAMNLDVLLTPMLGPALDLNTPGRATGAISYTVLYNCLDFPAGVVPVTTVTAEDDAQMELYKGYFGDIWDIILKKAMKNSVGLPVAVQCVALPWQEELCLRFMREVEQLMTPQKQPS

[6] = target: T3, rat hippocampal MAGL (Rattus norvegicus, UniProt Q8R431); assay: In vitro inhibition of hippocampal MAGL activity; type: biochemical; conditions: CPO more potent than PO
T3 sequence (Q8R431 1-303): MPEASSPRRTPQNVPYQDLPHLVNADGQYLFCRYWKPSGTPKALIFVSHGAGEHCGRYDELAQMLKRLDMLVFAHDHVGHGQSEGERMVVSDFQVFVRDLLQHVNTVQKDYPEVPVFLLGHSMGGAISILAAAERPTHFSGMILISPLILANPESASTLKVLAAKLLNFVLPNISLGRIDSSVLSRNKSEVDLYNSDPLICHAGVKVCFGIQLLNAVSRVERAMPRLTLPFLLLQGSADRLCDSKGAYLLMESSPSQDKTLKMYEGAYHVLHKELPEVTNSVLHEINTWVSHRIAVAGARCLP

[7] = target: T4, rat hippocampal FAAH (Rattus norvegicus, UniProt P97612); assay: In vitro inhibition of hippocampal FAAH activity; type: biochemical
T4 sequence (P97612 1-579): T2 sequence (P97612 1-579)

[8] = target: T5, hippocampal MAGL (Rattus norvegicus, UniProt Q8R431); type: in vivo; conditions: four hours after dosing; PO 0.3 and 0.6 mg/kg sc, CPO 6 and 12 mg/kg sc
T5 sequence (Q8R431 1-303): T3 sequence (Q8R431 1-303)

[9] = target: T6, hippocampal AChE (Rattus norvegicus, UniProt P37136); type: in vivo
T6 sequence (P37136 32-614): T1 sequence (P37136 32-614)

Cc1c(C(=O)NN2CCCCC2)nn(-c2ccc(Cl)cc2Cl)c1-c1ccc(I)cc1 [AM251, N-(piperidin-1-yl)-5-(4-iodophenyl)-1-(2,4-dichlorophenyl)-4-methyl-1H-pyrazole-3-carboxamide]
Influence on responses to chlorpyrifos [1]: no influence

Cc1c(C(=O)c2cccc3ccccc23)c2cccc3c2n1[C@H](CN1CCOCC1)CO3 [WIN 55,212-2]
Effect on signs of cholinergic toxicity following acute PO exposure ([1]; po): reduced

CCOP(=O)(OCC)Oc1nc(Cl)c(Cl)cc1Cl [chlorpyrifos oxon]
In vitro potency at inhibiting AChE relative to PO [2]: ≈ 2 fold
Lethality ([3]; male, Sprague-Dawley): 0/6
Lethality [3]: no lethality
Involuntary movements (tremors) [4]: dose-related
SLUD signs (primarily defecation and lacrimation) [4]: slightly increased
In vivo inhibition of hippocampal FAAH activity [5]: 90–95%
In vivo inhibition of hippocampal FAAH activity ([5]; listed as CPO): 80–90%
In vitro potency at inhibiting MAGL relative to PO [6]: ≈ 19 fold
IC50 [7]: 71 nM
In vitro potency at inhibiting FAAH relative to PO ([7]; CPO more potent than PO): ≈ 8 fold
In vivo inhibition of hippocampal MAGL activity [8]: 37–50%
In vivo inhibition of hippocampal AChE activity ([9]; rat, in vivo): 80–90%

CCOP(=O)(OCC)Oc1ccc([N+](=O)[O-])cc1 [paraoxon, Paraoxon]
Lethality ([3]; male, Sprague-Dawley, 0.6 mg/kg): 2/14
Involuntary movements (tremors) [4]: dose-related
SLUD signs (primarily defecation and lacrimation) [4]: slightly increased
In vivo inhibition of hippocampal FAAH activity [5]: 90–95%
In vivo inhibition of hippocampal FAAH activity ([5]; listed as PO): 80–90%
IC50 [7]: 562 nM
In vivo inhibition of hippocampal MAGL activity [8]: neither dosage of paraoxon affected MAGL activity
In vivo inhibition of hippocampal AChE activity ([9]; four hours after dosing, PO 0.3 and 0.6 mg/kg sc, CPO 6 and 12 mg/kg sc): 80–90%

— publication PMC4448943 (Neurotoxicology, 2014)
